For assay [1] the following is noted: after BLM; cited from earlier work.
In assay [2] the test system is lung epithelial cells (LECs). The following applies: in vitro and in vivo; cited from earlier work.
The test system of assay [3] is FL(IPF)-fibroblasts. Description: miR-34a (real-time PCR) and p53 (immunoblot) in FL-fibroblasts treated with CSP. The format is cell-based, human. To be noted: controls PBS, CP. The procedure: (§1) FIGS. 6A-6D. CSP (CSP4) augments p53 expression via induction of miR-34a in FL(IPF)-fibroblasts. (FIG. 6A) NL- and FL-fibroblasts (n=3) were treated with PBS, CSP-4 (CSP) or control peptide (CP). RNA was analyzed for miR-34a by real-time PCR. (FIG. 6B) FL-fibroblasts were treated with PBS or CSP or CP with or without miR-34a antisense (miR-34a-AS) or pre-miR-34a or control miRNA (Ctr-miR). Conditioned media (CM) were immunoblotted for PAI-1 and lysates (CL) for p53 and β-actin. (FIG. 6C) FL-fibroblasts were treated with PBS or CSP or CP in the presence or absence of miR-34a-AS, pre-miR-34a or Ctr-miR. RNA was analyzed for changes in miR-34a by real-time PCR. […] Changes in p53, uPA, PAI-1 and col-I were later assessed to identify the minimum amino acids required for the CSP effects.
(§2) NL- and FL-fibroblasts were treated with PBS, CSP or CP and RNA analyzed for miR-34a by real-time PCR. Also, FL-fibroblasts were cultured in the presence of PBS or CSP or CP with or without miR-34a antisense (miR-34a-AS) or pre-miR-34a (o control miRNA. Conditioned medium (CM) from these cultures was immunoblotted for PAI-1 and cell lysates (CL) were immunoblotted for p53. In one experiment, FL-fibroblasts were treated with PBS or CSP or CP in the presence or absence of miR-34a-AS, pre-miR-34a or control miR. RNA was analyzed for changes in miR-34a by real-time PCR. Results appear in FIGS. 6A-6C.

Assay [4] concerns ATII cell. The following applies: BLM- or cigarette smoke-induced; cited from earlier work.
In assay [5] the test system is NL-fibroblasts. Description: miR-34a and p53 in NL-fibroblasts treated with CSP. The format is cell-based, human. The method, then:
as §1, §2

Assay [6] relates to BLM-treated mice. Description: Established lung fibrosis in BLM-treated mice (CT scanning, lung function, trichrome staining, hydroxyproline, desmosine). In kind it is in vivo. To be noted: IP or IV administration beginning 14 d after BLM, WT mice; results reported herein and elsewhere. The method, then: FIGS. 10A-10D. Nutlin-3a (NTL) inhibits lung fibrosis in BLM-treated mice. Mice were exposed to BLM for 14 d to induce lung fibrosis. Saline treated mice were used as fibrosis controls. After 14 d, mice exposed to BLM were injected IV with either vehicle or nutlin-3 a (10 mg/kg body weight) (Zhang F et al. Drug Metab Dispos 39: 15-21, 2011) to determine whether nutlin-3 a inhibited established lung fibrosis. On day 21 after BLM injury, mice underwent CT scanning to assess the extent of fibrosis (FIG. 10A). One representative example is shown (n=9). (FIG. 10B) Lung compliance and resistance were measured in the same mice using the Flexivent system to assess improvement in lung function after nutlin-3 a treatment (n=9). (FIG. 10C) Lung sections were subjected to trichrome staining to assess lung architecture and collagen deposition as an indication of lung fibrosis. (FIG. 10D) Whole lung homogenates were analyzed for total collagen (hydroxyproline) and desmosine content as an independent assessment of changes in ECM.
FIGS. 11A-11D. CSP-4 inhibits established lung fibrosis and improves lung function. Mice were exposed to BLM to induce pulmonary fibrosis. After 14 d, the mice were injected IV with either vehicle or 1.5 mg/kg body weight of CSP-4 or control peptide (“CP”) of scrambled sequence. On d 21 after BLM injury, mice underwent CT scanning examine CSP-4 inhibition of established lung fibrosis (FIG. 11A). One representative example is shown (n=9). (FIG. 11B): Lung volumes were measured in the same mice (n=9) using quantitative CT renditions. (FIG. 11C): Lung sections were subjected to trichrome and H&E staining (not shown) to assess collagen deposition as an indicator of lung fibrosis. (FIG. 11D) Analysis of whole lung homogenates for total hydroxyproline content.
Mice exposed to BLM (or saline in controls) for 14 d to induce lung fibrosis were injected IV with nutlin-3a (10 mg/kg body weight) (Zhang et al, supra) or a vehicle control to determine and the effect on established lung fibrosis was examined. Fibrosis was evaluated by CT scanning and lung function (compliance and resistance) were measured using the Flexivent system. Lung sections were subjected to trichrome staining and H & E staining (the latter not shown) to assess lung architecture and collagen deposition as an indication of fibrosis. Finally, whole lung homogenates were analyzed for total collagen (hydroxyproline) and desmosine content (Bhandary Y P et al, Am J Physiol: Lung Cell Mol Physiol 302:L463-73, 2012; Bhandary Y P et al, Am J Pathol, 183: 131-43 2013) as an independent assessment of the ECM. […] Oral administration of Nutlin-3a 14 days after BLM injury likewise inhibited pulmonary fibrosis in mice.
Mice were exposed to BLM to induce pulmonary fibrosis. After 14 d, the mice were injected IV with either vehicle or 1.5 mg/kg body weight of CSP-4 (SEQ ID NO: 1) or control peptide (scrambled sequence of same amino acids; CP, SEQ ID NO:5) at 1.5 mg/kg body weight or vehicle was injected IV into mice exposed to BLM 14 days earlier. One week later, mice were tested by CT scanning to evaluate lung fibrosis. Lung volume was measured in the same mice using quantitative CT renditions.

The text below walks through data of patent US12173089B2, “Inhibition of pulmonary fibrosis with nutlin-3A and peptides” (BOARD OF REGENTS, THE UNIVERSITY OF TEXAS SYSTEM, priority 2013, dated 2024).

Take “NYHYLESSMTALYTLGH [PP 2, 17 residue peptide of the inventors' earlier application]”: the subsequent pulmonary fibrosis entry in assay [1] is “prevented”. The “BLM-induced apoptosis of LECs” value in assay [2] was “protected”.
On to “DGIWKASFTTFTVTKYWFYR (Synthetic peptide - Scaffolding domain of human caveolin-1) [CSP, 20 residue peptide which is the scaffolding domain of caveolin-1]”, for which, in assay [3], the miR-34a expression entry is reported as “significantly increased” and the p53 expression result is reported as “significantly increased”. Moreover, in assay [1], the subsequent pulmonary fibrosis entry is “prevented”. In assay [4], the ATII cell apoptosis entry is “inhibited” and the “ATII cell p53 expression” value is “inhibited”. The p53 expression result in assay [5] was “not in NL-fibroblasts”. Also, the established lung fibrosis result in assay [6] was “mitigates”. Further, in assay [2], the “BLM-induced apoptosis of LECs” value is reported as “protected”.
